Laboratory results: US8173120B2, “Method of preventing reduced feed intake in animals and treatment of disease conditions” (Precision Nutrition Pty Ltd, priority 2005, dated 2012)
Read-outs that look alike come from different tables or passages of the source.

Columns and labels:
[1] = test system: lactic acid producing bacteria; assay: in vitro function assay: lactic acid and pH after incubation of faecal/colonic samples from horses fed virginiamycin pellets; format: in vivo
Source text: Twelve horses were housed individually and fed 2.5 kg/d of a commercial horse concentrate each morning. Approximately 6 kg of medium quality lucerne hay was fed after animals had consumed the concentrate.
The experiment was run in three periods with 4 animals in the stables during each period. Each period lasted 12 days: five days to allow adaptation to the stables and the dietary regime, and then 7 days when medicated pellets containing different concentrations of virginiamycin were fed. Faecal samples were taken on the day before feeding medicated feed and then on days 2, 4 and 6 of feeding the medicated pellets.
The effectiveness of each dose rate and time on treatment was determined using an in vitro function assay to determine the amount of lactic acid produced during in vitro incubation of faecal material or samples taken from the distal colon. The fermentation of faecal material was carried out as follows. Fresh faecal material was obtained prior to the morning feed. Where warm material was available in the stable this was used, otherwise a rectal sample was obtained. A sub-sample of 150 g was mixed with an equal volume of distilled water and then strained through nylon gauze. Aliquots of supernatant were dispensed into 3 replicate tubes (4 ml/tube) and 1 ml of glucose solution (50 mg glucose/ml) was added before pricking the lid of the plastic vial with a 25 g needle and incubating for 20 to 24 hours at 37°. Following incubation the measurements of pH were made before centrifugation of a sub-sample prior to L-lactic acid analysis.
The results of the in vitro function assay are summarised in Tables 2 and 3 and represented graphically in FIG. 3. It is relevant to note that the level of glucose used in the in vitro incubations is effectively higher than any amount of carbohydrate which could be used in vivo. In the in vitro model, no volatile fatty acids are removed from the incubation flask through “absorption”.
The result of this is that the pH drops in vitro by more than it would in vivo and that a lactate-based fermentation develops more readily. It is therefore probably unrealistic to expect that lactate production can be completely controlled in this in vitro incubation model. Initially it was considered that the “baseline” in the in vitro model could be set around 10 mmol/L for an effective dose rate of virginiamycin. However, given the variable response around the 0.5 mg/kg dose rate in terms of lactic acid accumulation in the in vitro model it may be advisable to set a lower threshold for mean lactic acid concentration in determining the effective dose rate.

[2] = horses, very high concentrations (500 mg/kg complete feed); cited from earlier work
[3] = feed intake on introduction of virginiamycin into the diet (general statements); format: in vivo, sheep, cattle and horses
[4] = feed intake of horses on sudden or gradual introduction of virginiamycin (Founderguard); format: in vivo
Procedure: The aim of the experiment was to determine if there is a depression in feed intake when horses are first given Founderguard at the recommended dose rate of 0.5 mg virginiamycin per kg body weight per day, and whether a gradual or sudden introduction of Founderguard has different effects on feed intake during the introductory period.
Five horses of mixed ages and sexes were used in the experiment. All horses were treated against intestinal parasites prior to the Control period.
Open air feeding stalls approximately 2.5 m square were prepared with ground-level hay feeders, car tyre bucket-holders for feeding grain and a water trough shared between two stalls. Horses entered the stalls around 7.00 AM each day and were let out for exercise around 5.00 PM. […]
All the oats offered were consumed. Intake of all feed was measured on an ‘as-fed’ basis. […] While not measured objectively the quality of hay used in Period 2 was considered to be of higher quality than that used in Period 1. The effect of treatment on feed intake for each horse was calculated each day as a percentage of the mean intake for that animal during the five days of ‘Control’ intake measurement. […]
Feed intake was measured for at least 5 days without Founderguard (control intake) before commencing the five day treatment period. […]

[5] = horse 1, 640 mg/d, 1.422 mg/kg, 2 days on medicated feed
[6] = horse 1, 640 mg/d, 1.422 mg/kg, 6 days on medicated feed
[7] = horse 2, 160 mg/d, 0.343 mg/kg, 2 days on medicated feed
[8] = horse 2, 160 mg/d, 0.343 mg/kg, 4 days on medicated feed
[9] = horse 3, 1280 mg/d, 2.639 mg/kg, 2 days on medicated feed
[10] = horse 3, 1280 mg/d, 2.639 mg/kg, 4 days on medicated feed
[11] = horse 3, 1280 mg/d, 2.639 mg/kg, 6 days on medicated feed
[12] = horse 4, 20 mg/d, 0.042 mg/kg, 2 days on medicated feed
[13] = horse 4, 20 mg/d, 0.042 mg/kg, 4 days on medicated feed
[14] = horse 4, 20 mg/d, 0.042 mg/kg, 6 days on medicated feed
[15] = horse 5, 160 mg/d, 0.359 mg/kg, 2 days on medicated feed
[16] = horse 5, 160 mg/d, 0.359 mg/kg, 4 days on medicated feed
[17] = horse 5, 160 mg/d, 0.359 mg/kg, 6 days on medicated feed
[18] = horse 6, 40 mg/d, 0.091 mg/kg, 2 days on medicated feed
[19] = horse 6, 40 mg/d, 0.091 mg/kg, 4 days on medicated feed
[20] = horse 7, 640 mg/d, 1.475 mg/kg, 2 days on medicated feed
[21] = horse 7, 640 mg/d, 1.475 mg/kg, 4 days on medicated feed
[22] = horse 7, 640 mg/d, 1.475 mg/kg, 6 days on medicated feed
[23] = horse 8, 80 mg/d, 0.154 mg/kg, 2 days on medicated feed
[24] = horse 8, 80 mg/d, 0.154 mg/kg, 6 days on medicated feed
[25] = horse 9, 80 mg/d, 0.180 mg/kg, 2 days on medicated feed
[26] = horse 9, 80 mg/d, 0.180 mg/kg, 4 days on medicated feed
[27] = horse 10, 320 mg/d, 0.702 mg/kg, 2 days on medicated feed
[28] = horse 10, 320 mg/d, 0.702 mg/kg, 4 days on medicated feed
[29] = horse 11, 160 mg/d, 0.432 mg/kg, 2 days on medicated feed
[30] = horse 11, 160 mg/d, 0.432 mg/kg, 6 days on medicated feed
[31] = horse 12, 320 mg/d, 0.693 mg/kg, 2 days on medicated feed
[32] = horse 12, 320 mg/d, 0.693 mg/kg, 6 days on medicated feed

In the case of virginiamycin, the “control of lactic acid production” value ([1]; 0.4 to 0.7 mg per kg bodyweight per day, after three to four days) is reported as “partial and variable levels of controlling lactic acid production”, the “control of lactic acid producing bacteria in faecal/colonic digesta” value ([1]; 1.4 and 2.6 mg/kg body weight, 48 hours after first treatment) is reported as “good control of lactic acid producing bacteria” and the “capacity for lactic acid production” value ([1]; 1.4 and 2.6 mg/kg body weight, days 4 and 6 as well as day 2) is reported as “remained low”. For the same substance, the “capacity for lactic acid production” value ([1]; average of 0.4 and 0.7 mg/kg bodyweight per day, days 2, 4 and 6, response more variable and less complete than higher dose rates) was “reduction in capacity for lactic acid production”, the “control of lactic acid production” value ([1]; dose rates over 1.4 mg per kg body weight, after two days of treatment) was “almost complete control” and the “L-lactate concentration following incubation of faecal samples, Mean” value [1, 5] was 0 mmol/L. For the same substance, the “pH measured following incubation of faecal samples, Mean” value (from here on “pH measured following incubation”) [1, 5] was 5.11, the “L-lactate concentration following incubation of faecal samples, Mean” value [1, 6] was 4 mmol/L and the “pH measured following incubation” value [1, 6] was 4.94. For the same substance, the “L-lactate concentration following incubation of faecal samples, Mean” value [1, 7] was 17 mmol/L, the “pH measured following incubation” value [1, 7] was 4.61 and the “L-lactate concentration following incubation of faecal samples, Mean” value [1, 8] was 21 mmol/L. For the same substance, the “pH measured following incubation” value [1, 8] was 4.76, the “L-lactate concentration following incubation of faecal samples, Mean” value ([1]; horse 2, 160 mg/d, 0.343 mg/kg, 6 days on medicated feed) was 12 mmol/L and the “L-lactate concentration following incubation of faecal samples, Mean” value [1, 9] was 0 mmol/L. For the same substance, the “pH measured following incubation” value [1, 9] was 4.43, the “L-lactate concentration following incubation of faecal samples, Mean” value [1, 10] was 0 mmol/L and the “pH measured following incubation” value [1, 10] was 4.71. The “L-lactate concentration following incubation of faecal samples, Mean” value [1, 11] was 1 mmol/L, the “pH measured following incubation” value [1, 11] was 4.59 and the “L-lactate concentration following incubation of faecal samples, Mean” value [1, 12] was 47 mmol/L. For the same substance, the “pH measured following incubation” value [1, 12] was 3.63, the “L-lactate concentration following incubation of faecal samples, Mean” value [1, 13] was 47 mmol/L and the “pH measured following incubation” value [1, 13] was 4.02. The “L-lactate concentration following incubation of faecal samples, Mean” value [1, 14] was 31 mmol/L, the “pH measured following incubation” value [1, 14] was 4.28 and the “L-lactate concentration following incubation of faecal samples, Mean” value [1, 15] was 0 mmol/L. The “pH measured following incubation” value [1, 15] was 4.48, the “L-lactate concentration following incubation of faecal samples, Mean” value [1, 16] was 0 mmol/L and the “pH measured following incubation” value [1, 16] was 4.73. The “L-lactate concentration following incubation of faecal samples, Mean” value [1, 17] was 0 mmol/L, the “pH measured following incubation” value [1, 17] was 5.09 and the “L-lactate concentration following incubation of faecal samples, Mean” value [1, 18] was 23 mmol/L. The “pH measured following incubation” value [1, 18] was 4.11, the “L-lactate concentration following incubation of faecal samples, Mean” value [1, 19] was 25 mmol/L and the “pH measured following incubation” value [1, 19] was 4.11. The “L-lactate concentration following incubation of faecal samples, Mean” value ([1]; horse 6, 40 mg/d, 0.091 mg/kg, 6 days on medicated feed) was 24 mmol/L, the “L-lactate concentration following incubation of faecal samples, Mean” value [1, 20] was 1 mmol/L and the “pH measured following incubation” value [1, 20] was 4.85. The “L-lactate concentration following incubation of faecal samples, Mean” value [1, 21] was 1 mmol/L, the “pH measured following incubation” value [1, 21] was 4.64 and the “L-lactate concentration following incubation of faecal samples, Mean” value [1, 22] was 1 mmol/L. The “pH measured following incubation” value [1, 22] was 4.67, the “L-lactate concentration following incubation of faecal samples, Mean” value [1, 23] was 5 mmol/L and the “pH measured following incubation” value [1, 23] was 4.41. For the same substance, the “L-lactate concentration following incubation of faecal samples, Mean” value [1, 24] was 44 mmol/L, the “pH measured following incubation” value [1, 24] was 4.36 and the “L-lactate concentration following incubation of faecal samples, Mean” value [1, 25] was 4 mmol/L. The “pH measured following incubation” value [1, 25] was 4.83, the “L-lactate concentration following incubation of faecal samples, Mean” value [1, 26] was 37 mmol/L and the “pH measured following incubation” value [1, 26] was 4.25. For the same substance, the “L-lactate concentration following incubation of faecal samples, Mean” value ([1]; horse 9, 80 mg/d, 0.180 mg/kg, 6 days on medicated feed) was 29 mmol/L, the “L-lactate concentration following incubation of faecal samples, Mean” value [1, 27] was 1 mmol/L and the “pH measured following incubation” value [1, 27] was 4.67. The “L-lactate concentration following incubation of faecal samples, Mean” value [1, 28] was 1 mmol/L, the “pH measured following incubation” value [1, 28] was 5.06 and the “L-lactate concentration following incubation of faecal samples, Mean” value ([1]; horse 10, 320 mg/d, 0.702 mg/kg, 6 days on medicated feed) was 15 mmol/L. The “L-lactate concentration following incubation of faecal samples, Mean” value [1, 29] was 4 mmol/L, the “pH measured following incubation” value [1, 29] was 4.54 and the “L-lactate concentration following incubation of faecal samples, Mean” value [1, 30] was 19 mmol/L. For the same substance, the “pH measured following incubation” value [1, 30] was 4.12, the “L-lactate concentration following incubation of faecal samples, Mean” value [1, 31] was 36 mmol/L and the “pH measured following incubation” value [1, 31] was 3.85. The “L-lactate concentration following incubation of faecal samples, Mean” value [1, 32] was 3 mmol/L, the “pH measured following incubation” value [1, 32] was 4.93 and the “prevention of over production of lactic acid” value ([1]; horses, low dose rates such as 0.1 mg per kg bodyweight per day) was “may not be effective in preventing over production of lactic acid”. For the same substance, the “effect on feed intake” value [2] was “reduce feed intake”, the “feed intake compared to pre-medication levels” value ([3]; gradually increasing doses) was “no detectable decrease in feed intake” and the “feed intake, average, of the pretreatment level” value ([3]; sudden introduction of the full dose rate) was “around 80%”. The “reduction of feed intake” value ([3]; sudden introduction to sheep, cattle or horses at 0.5 mg per kg body weight and above, or 20 g/tonne and above) was no less than 20%, the “effect on feed intake” value ([4]; gradual introduction over 4 days (25, 50, 75, 100% of complete dose)) was “does not cause a depression in feed intake” and the “feed intake compared to pretreatment levels (day 0) and to gradual introduction” value ([4]; sudden introduction of the full dose (0.5 mg/kg bodyweight per day)) was “significant decrease in feed intake”.
